Experimental data published in BindingDB's records for doi:10.1021/jm00039a024 (Eisai, 1994).

Target: cGMP-specific 3',5'-cyclic phosphodiesterase, PDE5 (Sus scrofa)
Assay: Inhibitory activity against cGMP-phosphodiesterase from porcine aorta

Point of comparison: `CN(C)C(=O)c1ccc2ncnc(NCc3ccc4c(c3)OCO4)c2c1` [4-[(Benzo[1,3]dioxol-5-ylmethyl)-amino]-quinazoline-6-carboxylic acid dimethylamide], IC50 2300 nM. Against it:
- CSc1ccc2ncn(Cc3ccc4c(c3)OCO4)c(=O)c2c1 [3-Benzo[1,3]dioxol-5-ylmethyl-6-methylsulfanyl-3H-quinazolin-4-one] — the same, 2300 nM
- O=c1c2ccc(Cl)cc2ncn1Cc1ccc2c(c1)OCO2 [3-Benzo[1,3]dioxol-5-ylmethyl-7-chloro-3H-quinazolin-4-one] — 3.8-fold higher, 8700 nM
- NC(=O)c1ccc2ncnc(NCc3ccc4c(c3)OCO4)c2c1 [4-[(Benzo[1,3]dioxol-5-ylmethyl)-amino]-quinazoline-6-carboxylic acid amide] — 3-fold lower, 770 nM
- CCOC(=O)c1ccc2ncnc(NCc3ccc4c(c3)OCO4)c2c1 [4-[(Benzo[1,3]dioxol-5-ylmethyl)-amino]-quinazoline-6-carboxylic acid ethyl ester] — 3.7-fold lower, 620 nM
- COc1ccc2ncnc(NCc3ccc4c(c3)OCO4)c2c1OC [Benzo[1,3]dioxol-5-ylmethyl-(5,6-dimethoxy-quinazolin-4-yl)-amine] — 3.2-fold lower, 730 nM
- COc1cc(OC)c2ncnc(NCc3ccc4c(c3)OCO4)c2c1 [Benzo[1,3]dioxol-5-ylmethyl-(6,8-dimethoxy-quinazolin-4-yl)-amine] — 2.8-fold lower, 810 nM
- CCOc1ccc2ncnc(NCc3ccc4c(c3)OCO4)c2c1 [Benzo[1,3]dioxol-5-ylmethyl-(6-ethoxy-quinazolin-4-yl)-amine] — 6.1-fold lower, 380 nM
- CS(=O)(=O)c1ccc2ncnc(NCc3ccc4c(c3)OCO4)c2c1 [Benzo[1,3]dioxol-5-ylmethyl-(6-methanesulfonyl-quinazolin-4-yl)-amine] — 2.8-fold lower, 810 nM
- COc1ccc2ncnc(NCc3ccc4c(c3)OCO4)c2c1 [Benzo[1,3]dioxol-5-ylmethyl-(6-methoxy-quinazolin-4-yl)-amine] — 10-fold lower, 230 nM
- Cc1ccc2ncnc(NCc3ccc4c(c3)OCO4)c2c1 [Benzo[1,3]dioxol-5-ylmethyl-(6-methyl-quinazolin-4-yl)-amine] — 23-fold lower, 100 nM
- COc1cc2ncnc(NCc3ccc4c(c3)OCO4)c2cc1SC [Benzo[1,3]dioxol-5-ylmethyl-(7-methoxy-6-methylsulfanyl-quinazolin-4-yl)-amine] — 6.6-fold lower, 350 nM
- OCc1ccc2ncnc(NCc3ccc4c(c3)OCO4)c2c1 [{4-[(Benzo[1,3]dioxol-5-ylmethyl)-amino]-quinazolin-6-yl}-methanol] — 2.5-fold lower, 930 nM
- O=C(c1ccc2ncnc(NCc3ccc4c(c3)OCO4)c2c1)N1CCOCC1 [{4-[(Benzo[1,3]dioxol-5-ylmethyl)-amino]-quinazolin-6-yl}-morpholin-4-yl-methanone] — within 1.5-fold, 2700 nM
